Results from patent publication US20190117716A1, “FATTY ACID COMPOSITION AND PHARMACEUTICAL PREPARATION AND APPLICATION THEREOF” (priority 2011, published 2019).

Assay: single fatty acids used alone (inventor's research)
Conditions: any one fatty acid used alone, compared with the combination

SMILES	curative effect when used alone
CCCCCCCCCCCCCCCCCCCC(=O)O [arachidic acid]	relatively unobvious
CCCCC/C=C\C/C=C\CCCCCCCC(=O)O [linoleic acid]	relatively unobvious
CCCCCCCC/C=C\CCCCCCCC(=O)O [oleic acid]	relatively unobvious
CCCCCCCCCCCCCCCC(=O)O [palmitic acid]	relatively unobvious
CCCCCC/C=C\CCCCCCCC(=O)O [palmitoleic acid]	relatively unobvious
CCCCCCCCCCCCCCCCCC(=O)O [stearic acid]	relatively unobvious
